IC50 data for 22 molecules are collected here from patent publication US10947210B2 (priority 2015, dated 2021).

pIC50: −log10 of the molar value.

The target in the assay is HCV RNA-dependent RNA polymerase (NS5B) (Hepatitis C virus genotype 1b (isolate BK) (HCV), UniProt P26663). Nature of the assay: RNA-Dependent RNA HCV NS5B (polymerase) Assay and IC50 Determination. It is filed as biochemical. The conditions noted are these: purified HCV NS5B polymerase, polyA:U16 substrate, 32P-UTP incorporation; read-out: IC50. How it is done: RNA-Dependent RNA HCV NS5B (polymerase) Assay and IC50 Determination.
Chain of HCV RNA-dependent RNA polymerase (NS5B) (P26663 2420-3010): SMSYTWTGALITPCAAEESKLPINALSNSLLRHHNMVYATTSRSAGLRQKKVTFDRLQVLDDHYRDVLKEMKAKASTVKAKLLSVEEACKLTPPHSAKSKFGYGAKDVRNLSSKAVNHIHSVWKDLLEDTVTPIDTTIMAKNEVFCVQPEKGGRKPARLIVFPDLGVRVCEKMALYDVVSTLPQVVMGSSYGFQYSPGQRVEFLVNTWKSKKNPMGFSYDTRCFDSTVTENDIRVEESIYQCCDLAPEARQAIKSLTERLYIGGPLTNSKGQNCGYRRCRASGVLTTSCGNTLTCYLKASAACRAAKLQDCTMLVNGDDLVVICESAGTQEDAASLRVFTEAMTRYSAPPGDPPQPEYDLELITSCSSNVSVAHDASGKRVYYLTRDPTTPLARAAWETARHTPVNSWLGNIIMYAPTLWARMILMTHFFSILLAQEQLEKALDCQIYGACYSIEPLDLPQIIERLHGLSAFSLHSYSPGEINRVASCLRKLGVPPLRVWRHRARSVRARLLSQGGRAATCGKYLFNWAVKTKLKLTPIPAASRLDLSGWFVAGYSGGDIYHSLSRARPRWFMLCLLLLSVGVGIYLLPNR
The reaction mixtures consisted of 50 mM Hepes-KOH, pH 7.5, 5 mM MgCl2, 5 mM DTT, 2% glycerol, 0.01% Triton® X-100, 0.5 uM polyA:U16 substrate, purified HCV RNA-dependent RNA polymerase, 10 μM UTP, and ^32P-UTP (Perkin Elmer). The reaction mixtures incubated at 30° C. for 60 minutes, and then filtered through Zeta probe membrane (BioRad). The filter was washed with 5×SSC (75 mM sodium citrate, pH 7 and 750 mM NaCl), and the radiolabeled RNA products were quantitated by microbeta (Perkin Elmer). For IC50 determination, different concentrations of inhibitors were added to the polymerase reaction mixtures, and incubated at 37° C. for 60 minutes. IC50 values were determined using GraFit (Erithaus software).
Table 1 presents IC50 data obtained using the biochemical assay to test representative compounds. Data are presented as follows: “+++” means <0.1 μM; “++” means ≥0.1 μM but <1.0 μM; “+” means ≥1.0 μM.
In general, pIC50 refers to −log10 of the IC50, conventionally taken in molar units. Turning to `CNC(=O)c1c(-c2ccc(F)cc2)oc2cc(N(CCOCCOCCCc3ccccc3C(=O)OC)S(C)(=O)=O)c(C3CC3)cc12` [Compound 12-6A, 2-{3-[2-(2-{[5-Cyclopropyl-2-(4-fluoro-phenyl)-3-methylcarbamoyl-benzofuran-6-yl]-methanesulfonyl-amino}-ethoxy)-ethoxy]-propyl}-benzoic Acid Methyl Ester], the pIC50 was 6.00 to 7.00.

For `CCOC(=O)CCOCCOCCOCCN(c1cc2oc(-c3ccc(F)cc3)c(C(=O)NC)c2cc1C1CC1)S(C)(=O)=O` [Compound 30-3, 3-{2-[2-(2-{[5-Cyclopropyl-2-(4-fluoro-phenyl)-3-methylcarbamoyl-benzofuran-6-yl]-methanesulfonyl-amino}-ethoxy)-ethoxy]-ethoxy}-propionic acid ethyl ester], the negative logarithm of the IC50 (pIC50) was < 6.00.

Take `CCOC(=O)c1cccc(OCCOCCOCCN(c2cc3oc(-c4ccc(F)cc4)c(C(=O)NC)c3cc2C2CC2)S(C)(=O)=O)c1` [Compound 14-6B, 3-{2-[2-(2-{[5-Cyclopropyl-2-(4-fluoro-phenyl)-3-methylcarbamoyl-benzofuran-6-yl]-methanesulfonyl-amino}-ethoxy)-ethoxy]-ethoxy}-benzoic Acid Ethyl Ester]: the pIC50 is < 6.00.

Turning to `CNC(=O)c1c(-c2ccc(F)cc2)oc2cc(N(CC(=O)NCC(=O)NCCCCC(=O)O)S(C)(=O)=O)c(C3CC3)cc12` [Compound 10-4A, 5-[2-(2-{[5-Cyclopropyl-2-(4-fluoro-phenyl)-3-methylcarbamoyl-benzofuran-6-yl]-methanesulfonyl-amino}-acetylamino)-acetylamino]-pentanoic Acid], the pIC50 is < 6.00.

With `CNC(=O)c1c(-c2ccc(F)cc2)oc2cc(N(CCOCCOCCCc3ccccc3C(=O)O)S(C)(=O)=O)c(C3CC3)cc12` [Compound 12-7A, 2-{3-[2-(2-{[5-Cyclopropyl-2-(4-fluoro-phenyl)-3-methylcarbamoyl-benzofuran-6-yl]-methanesulfonyl-amino}-ethoxy)-ethoxy]-propyl}-benzoic Acid], the pIC50 is > 7.00.

Turning to `CNC(=O)c1c(-c2ccc(F)cc2)oc2cc(N(CCOCCOCc3ccc(C(=O)OC)cc3)S(C)(=O)=O)c(C3CC3)cc12` [Compound 06-6B, 4-[2-(2-{[5-Cyclopropyl-2-(4-fluoro-phenyl)-3-methylcarbamoyl-benzofuran-6-yl]-methanesulfonyl-amino}-ethoxy)-ethoxymethyl]-benzoic Acid Methyl Ester], the pIC50 was < 6.00.

Regarding `CNC(=O)c1c(-c2ccc(F)cc2)oc2cc(N(CCOCCOCc3ccc(C(=O)OC)c(N)c3)S(C)(=O)=O)c(C3CC3)cc12` [Compound 29-9, 2-Amino-4-[2-(2-{[5-cyclopropyl-2-(4-fluoro-phenyl)-3-methylcarbamoyl-benzofuran-6-yl]-methanesulfonyl-amino}-ethoxy)-ethoxymethyl]-benzoic Acid Methyl Ester], the pIC50 was 6.00 to 7.00.

As to `CNC(=O)c1c(-c2ccc(F)cc2)oc2cc(N(CCCCCOCCCC(C)C(=O)O)S(C)(=O)=O)c(C3CC3)cc12` (stereo not shown) [Compound 28-8B, 5-(5-{[5-Cyclopropyl-2-(4-fluoro-phenyl)-3-methylcarbamoyl-benzofuran-6-yl]-methanesulfonyl-amino}-pentyloxy)-2-methyl-pentanoic Acid], the pIC50 is > 7.00.

For the molecule `CNC(=O)c1c(-c2ccc(F)cc2)oc2cc(N(CCOCCOCCOCc3cccc(C(C)=O)c3)S(C)(=O)=O)c(C3CC3)cc12` [Compound 02-8B, 6-[(2-{2-[2-(3-Acetyl-benzyloxy)-ethoxy]-ethoxy}-ethyl)-methanesulfonyl-amino]-5-cyclopropyl-2-(4-fluoro-phenyl)-benzofuran-3-carboxylic Acid Methylamide], the pIC50 is < 6.00.

With `CNC(=O)c1c(-c2ccc(F)cc2)oc2cc(N(CCOCCOCCOCc3ccc(C(=O)/C=C(\O)C(=O)O)cc3)S(C)(=O)=O)c(C3CC3)cc12` [Compound 02-10G, 4-(4-{2-[2-(2-{[5-Cyclopropyl-2-(4-fluoro-phenyl)-3-methylcarbamoyl-benzofuran-6-yl]-methanesulfonyl-amino}-ethoxy)-ethoxy]-ethoxymethyl}-phenyl)-2-hydroxy-4-oxo-but-2-enoic Acid], the pIC50 was < 6.00.

For `CCOC(=O)c1ccc(COCCOCCN(c2cc3oc(-c4ccc(F)cc4)c(C(=O)NC)c3cc2C2CC2)S(C)(=O)=O)cc1` [Compound 06-8B1, 4-[2-(2-{[5-Cyclopropyl-2-(4-fluoro-phenyl)-3-methylcarbamoyl-benzofuran-6-yl]-methanesulfonyl-amino}-ethoxy)-ethoxymethyl]-benzoic Acid Ethyl Ester], the pIC50 was < 6.00.

On to `CNC(=O)c1c(-c2ccc(F)cc2)oc2cc(N(CCOCCOCCOCCOCCOCc3ccc(C(C)=O)cc3)S(C)(=O)=O)c(C3CC3)cc12` [Compound 02-8I, 6-({2-[2-(2-{2-[2-(4-Acetyl-benzyloxy)-ethoxy]-ethoxy}-ethoxy)-ethoxy]-ethyl}-methanesulfonyl-amino)-5-cyclopropyl-2-(4-fluoro-phenyl)-benzofuran-3-carboxylic Acid Methylamide], for which the pIC50 was < 6.00.

Regarding `CNC(=O)c1c(-c2ccc(F)cc2)oc2cc(N(CCOCCOCc3ccc(C(=O)OC)c(C)c3)S(C)(=O)=O)c(C3CC3)cc12` [Compound 18-9A, 4-[2-(2-{[5-Cyclopropyl-2-(4-fluoro-phenyl)-3-methylcarbamoyl-benzofuran-6-yl]-methanesulfonyl-amino}-ethoxy)-ethoxymethyl]-2-methyl-benzoic Acid Methyl Ester], the pIC50 was < 6.00.

For `CNC(=O)c1c(-c2ccc(F)cc2)oc2cc(N(CCOCCOCc3ccc(C(=O)O)c4ccccc34)S(C)(=O)=O)c(C3CC3)cc12` [Compound 20-8, 4-[2-(2-{[5-Cyclopropyl-2-(4-fluoro-phenyl)-3-methylcarbamoyl-benzofuran-6-yl]-methanesulfonyl-amino}-ethoxy)-ethoxymethyl]-naphthalene-1-carboxylic Acid], the pIC50 was > 7.00.

As to `CCCCOCCOCCOCCN(c1cc2oc(-c3ccc(F)cc3)c(C(=O)NC)c2cc1C1CC1)S(C)(=O)=O` [Compound 05-4B, 6-({2-[2-(2-Butoxy-ethoxy)-ethoxy]-ethyl}-methanesulfonyl-amino)-5-cyclopropyl-2-(4-fluoro-phenyl)-benzofuran-3-carboxylic Acid Methylamide], the pIC50 is < 6.00.

Turning to `CNC(=O)c1c(-c2ccc(F)cc2)oc2cc(N(CCOCCOCc3ccc(C(=O)OCSC)cc3)S(C)(=O)=O)c(C3CC3)cc12` [Compound 06-8B6, 4-[2-(2-{[5-Cyclopropyl-2-(4-fluoro-phenyl)-3-methylcarbamoyl-benzofuran-6-yl]-methanesulfonyl-amino}-ethoxy)-ethoxymethyl]-benzoic Acid Methylsulfanylmethyl Ester], the pIC50 is 6.00 to 7.00.

On to `CNC(=O)c1c(-c2ccc(F)cc2)oc2cc(N(CCOCCOCCOCCOCc3cccc(C(=O)O)c3)S(C)(=O)=O)c(C3CC3)cc12` [Compound 30-4, 3-(2-{2-[2-(2-{[5-Cyclopropyl-2-(4-fluoro-phenyl)-3-methylcarbamoyl-benzofuran-6-yl]-methanesulfonyl-amino}-ethoxy)-ethoxy]-ethoxy}-ethoxymethyl)-benzoic acid], for which the pIC50 is < 6.00.

Consider `CNC(=O)c1c(-c2ccc(F)cc2)oc2cc(N(CCOCCOCCc3ccccc3C(=O)O)S(C)(=O)=O)c(C3CC3)cc12` [Compound 11-6A, 2-{2-[2-(2-{[5-Cyclopropyl-2-(4-fluoro-phenyl)-3-methylcarbamoyl-benzofuran-6-yl]-methanesulfonyl-amino}-ethoxy)-ethoxy]-ethyl}-benzoic Acid], for which the pIC50 is > 7.00.

Take `CNC(=O)c1c(-c2ccc(F)cc2)oc2cc(N(CCOCCCc3cccc(C(C)=O)c3)S(C)(=O)=O)c(C3CC3)cc12` [Compound 30-5, 6-({2-[3-(3-Acetyl-phenyl)-propoxy]-ethyl}-methanesulfonyl-amino)-5-cyclopropyl-2-(4-fluoro-phenyl)-benzofuran-3-carboxylic acid methylamide]: the pIC50 is < 6.00.

Turning to `CNC(=O)c1c(-c2ccc(F)cc2)oc2cc(N(CCOCCCCc3ccc(C(=O)O)cc3)S(C)(=O)=O)c(C3CC3)cc12` [Compound 13-8A, 4-[4-(2-{[5-Cyclopropyl-2-(4-fluoro-phenyl)-3-methylcarbamoyl-benzofuran-6-yl]-methanesulfonyl-amino}-ethoxy)-butyl]-benzoic Acid], the pIC50 is 6.00 to 7.00.

On to `CNC(=O)c1c(-c2ccc(F)cc2)oc2cc(N(CCOCCOCCOc3ccc(C(=O)O)cc3)S(C)(=O)=O)c(C3CC3)cc12` [Compound 14-7C, 4-{2-[2-(2-{[5-Cyclopropyl-2-(4-fluoro-phenyl)-3-methylcarbamoyl-benzofuran-6-yl]-methanesulfonyl-amino}-ethoxy)-ethoxy]-ethoxy}-benzoic Acid], for which the negative-log IC50 (pIC50) is 6.00 to 7.00.

Take `CCCCOC(=O)c1ccc(COCCOCCN(c2cc3oc(-c4ccc(F)cc4)c(C(=O)NC)c3cc2C2CC2)S(C)(=O)=O)cc1` [Compound 06-8B3, 4-[2-(2-{[5-Cyclopropyl-2-(4-fluoro-phenyl)-3-methylcarbamoyl-benzofuran-6-yl]-methanesulfonyl-amino}-ethoxy)-ethoxymethyl]-benzoic Acid Butyl Ester]: the pIC50 is 6.00 to 7.00.
